# Molecular target: T1, hP2X3 (human Purinergic P2X receptors subtype 3), clone B (Homo sapiens, UniProt P56373)
# T1 sequence (P56373 1-397): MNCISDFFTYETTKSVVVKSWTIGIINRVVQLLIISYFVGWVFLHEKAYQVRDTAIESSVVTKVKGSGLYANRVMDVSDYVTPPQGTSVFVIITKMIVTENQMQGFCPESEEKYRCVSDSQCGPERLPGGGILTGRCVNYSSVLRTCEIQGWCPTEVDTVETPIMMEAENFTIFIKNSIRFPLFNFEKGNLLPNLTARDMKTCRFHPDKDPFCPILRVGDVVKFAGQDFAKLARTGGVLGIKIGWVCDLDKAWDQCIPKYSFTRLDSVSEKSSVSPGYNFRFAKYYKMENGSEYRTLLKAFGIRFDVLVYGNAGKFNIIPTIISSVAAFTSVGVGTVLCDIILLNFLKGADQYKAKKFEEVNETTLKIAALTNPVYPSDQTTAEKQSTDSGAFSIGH
# Assay: hP2X3 FLIPR calcium (Fluo-4) antagonist assay, clone B
# Conditions: Human P2X3 FLIPR Clone B IC50 (nM), RLE cells expressing hP2X3 clone B (NM_002559); agonist 500 nM α,β-methylene-ATP
# Method: The assay used a calcium indicator dye (Fluo-4) that emits fluorescence, the intensity of which is related to the concentration of calcium that entered the cell when P2X3 was activated and the channel opened. Activation of hP2X3 or rat P2X3 and rat P2X2/3 (from the coexpression of rat P2X3 and rat P2×2) is elicited the by P2X3 agonist α,β methylene-ATP (Sigma M6517), and the resulting fluorescence is measured with a FLIPR II™ instrument (Molecular Devices). Compounds are tested for their ability to inhibit the agonist-induced fluorescent signal.
# For the rat P2X2/3 HEK-TREX cells, induction of the rat P2X3 expression is used to generate the rat P2X2/3 channels in HEK-TREX cells and performed by addition of 1 μg/mL tetracycline (Invitrogen) 24 h prior to compounds testing to the HEK-TREX expressing the rat P2X2 constitutively. On the day of the experiment, the cells and test compounds are prepared as follows. […] After preparing the compounds, the medium is removed from the cell plates by inversion. A loading solution of 30 μL assay buffer containing 4 μM of the calcium indicator dye FLUO-4 AM (Molecular Probes F14202) is added to each well using a Multidrop (Labsystems). […] The incubation is terminated by washing the cells four times in assay buffer using a Skatron Embla (Molecular Devices), and 25 μL of assay buffer was left in each well. Cell plates are then transferred to the FLIPR. Experiments are initiated by measuring a baseline fluorescence reading for 10 seconds, followed by the addition of 12.5 μL of cpds and data sampling for a total 280 seconds. The experiments are terminated by addition of 12.5 μL of a reference agonist (500 nM α,β-methylene-ATP) or buffer, producing a final assay volume of 50 μL followed by data sampling for an additional 280 seconds.
# In P2X3 antagonist experiments (human and rat assays) data are analysed as normalised maximal peak fluorescence monitored following agonist addition and calculated as percent of relative fluorescent counts from control agonist. The dose-response antagonist inhibition curves are analyzed in a 4-parameter sigmoidal fit using a non-linear curve-fitting program (XLfit version 5.0.6, ID Business Solutions Limited, Guildford, UK).
row,IC50 [nM],Structure (SMILES)
1,91,"CC(C)N1Cc2c(NC(c3ccccc3)c3ccc(Cl)cc3)nc(NCCN(C)C)nc2C1=O (stereo not drawn) [Example 9, 4-{[(4-chlorophenyl)(phenyl)methyl]amino}-2-{[2-(dimethylamino)ethyl]amino}-6-isopropyl-5,6-dihydro-7H-pyrrolo[3,4-d]pyrimidin-7-one]"
2,280,"CC(C)N1Cc2c(NC(C)(C)Cc3ccc(Cl)cc3)nc(N3CCN(C=O)CC3)nc2C1=O [Example 128, 4-(4-{[2-(4-chlorophenyl)-1,1-dimethylethyl]amino}-6-isopropyl-7-oxo-6,7-dihydro-5H-pyrrolo[3,4-d]pyrimidin-2-yl)piperazine-1-carbaldehyde]"
3,6200,"CCN(CC)c1nc(NC(c2ccccc2)c2ccccc2)c2c(n1)C(=O)N(C(C)C)C2 [Example 89, 4-(Benzhydryl-amino)-2-diethylamino-6-isopropyl-5,6-dihydro-pyrrolo[3,4-d]pyrimidin-7-one]"
4,3700,"CC(=O)N1CCN(c2nc3c(c(N4CCC[C@H]4Cc4ccccc4)n2)CN(C(C)C)C3=O)CC1 [Example 117, 2-(4-acetylpiperazin-1-yl)-4-[(2S)-2-benzylpyrrolidin-1-yl]-6-isopropyl-5,6-dihydro-7H-pyrrolo[3,4-d]pyrimidin-7-one]"
5,4200,"CC(=O)N1CCN(c2nc(NC3CCc4cc(Cl)ccc43)c3c(n2)C(=O)N(C(C)C)C3)CC1 (stereo not drawn) [Example 133, 2-(4-Acetylpiperazin-1-yl)-4-(5-chloro-2,3-dihydro-1H-inden-1-ylamino)-6-isopropyl-5H-pyrrolo[3,4-d]pyrimidin-7(6H)-one]"
6,3000,"CC(=O)N1CCN(c2nc(NC(C)(C)Cc3ccc(F)cc3)c3c(n2)C(=O)N(Cc2ccccc2Cl)C3)CC1 [Example 315, 2-(4-acetylpiperazin-1-yl)-6-(2-chlorobenzyl)-4-(1-(4-fluorophenyl)-2-methylpropan-2-ylamino)-5H-pyrrolo[3,4-d]pyrimidin-7(6H)-one]"
7,150,"CCN1CCN(c2nc(NC(c3ccccc3)c3ccc(C)cc3)c3c(n2)C(=O)N(C(C)C)C3)CC1 (stereo not drawn) [Example 101, 2-(4-Ethyl-piperazin-1-yl)-6-isopropyl-4-[(phenyl-p-tolyl-methyl)-amino]-5,6-dihydro-pyrrolo[3,4-d]-pyrimidin-7-one]"
8,5100,"CC(=O)N1CCN(c2nc3c(c(N4CCCC4c4nc(-c5ccccc5)no4)n2)CN(C(C)C)C3=O)CC1 (stereo not drawn) [Example 280, 4-(4-acetylpiperazin-1-yl)-2-[2-(3-phenyl-1,2,4-oxadiazol-5-yl)pyrrolidin-1-yl]-8-propan-2-yl-3,5,8-triazabicyclo[4.3.0]nona-1,3,5-trien-7-one]"
9,200,"CC(=O)N1CCN(c2nc(NC(C)c3ccc(C(F)(F)F)cc3)c3c(n2)C(=O)N(C(C)C)C3)CC1 (stereo not drawn) [Example 28, 2-(4-acetylpiperazin-1-yl)-6-isopropyl-4-({1-[4-(trifluoromethyl)phenyl]ethyl}amino)-5,6-dihydro-7H-pyrrolo[3,4-d]pyrimidin-7-one]"
10,2300,"CC(=O)N1CCN(c2nc3c(c(N4CCC[C@@H]4C(=O)N4CCC(C)CC4)n2)CN(C(C)C)C3=O)CC1 [Example 303, 4-(4-acetylpiperazin-1-yl)-2-[(2R)-2-(4-methylpiperidine-1-carbonyl)pyrrolidin-1-yl]-8-propan-2-yl-3,5,8-triazabicyclo[4.3.0]nona-2,4,10-trien-7-one]"
11,1200,"CC(=O)N1CCN(c2nc(NC(C(=O)O)c3ccc(C(F)(F)F)cc3)c3c(n2)C(=O)N(C(C)C)C3)CC1 (stereo not drawn) [Example 35, {[2-(4-acetylpiperazin-1-yl)-6-isopropyl-7-oxo-6,7-dihydro-5H-pyrrolo[3,4-d]pyrimidin-4-yl]amino}[4-(trifluoromethyl)phenyl]acetic acid]"

row,Structure (SMILES),IC50 [nM]
1,"CC(C)N1Cc2c(NCc3cnc4ccccc4c3)nc(NC3CN4CCC3CC4)nc2C1=O (stereo not drawn) [Example 214, 6-isopropyl-4-(3-quinolylmethylamino)-2-(quinuclidin-3-ylamino)-5H-pyrrolo[3,4-d]pyrimidin-7-one]",2300

# From patent US20090099195A1 (ASTRAZENECA AB, priority 2007, published 2009)
